Source: patent publication US4438120A, “Pyridoindolobenzodiazepine tranquilizers” (E. I. Du Pont de Nemours & Company, priority 1982, dated 1984)

The compounds below were run on Conditioned Avoidance Response (CAR) (assay: Conditioned Avoidance Response (CAR) test in mice, oral). Details: female white mice, moving average method.
Assay type: in vivo, mouse (female white mice)
Method: The paradigm used for predicting tranquilizer activity was a Conditioned Avoidance Response (CAR) test in mice. Female white mice, 19-23 g, were used. The apparatus modified from Bovet, D. et al., Science, 163, 139-149 (1969), was a one-way shuttlebox with 0.4 mA scrambled electric footshock as unconditioned stimulus (US) and a 6 watt white light plus a relay buzzer as conditioned stimuli (CS). Mice were conditioned by three sets of 1-5 trials on day 1, then were fasted for 17-21 hours. The conditioned mice were tested for retention of the conditioned response on day 2, and then were dosed orally with test drug at doses such as 0, 1, 3, 9, 27 and 81 mg/kg. ED50 values (doses at which 50% of the animals would be expected to show response failure) were calculated by the moving average method [Thompson, W. R., Bact. Rev., 11, 115 (1947)].

| Compound | Mouse CAR ED50 (avoidance ED50, dose at which 50% of the animals would be expected to show response failure) |
| --- | --- |
| CCN1CC[C@@H]2[C@@H](C1)c1cc(Cl)cc3c1N2c1ccccc1CN3.Cl.Cl (relative stereo) [Example 96, trans-6-Chloro-3-ethyl-1,2,3,4,4a,8,9,14a-octahydropyrido[4',3':2,3]indolo[1,7-ab][1,4]benzodiazepine, Dihydrochloride] | 0.3 mg/kg |
| CN1Cc2ccccc2-n2c3c(c4cc(C(F)(F)F)cc1c42)CNCC3 [Example 62] | > 81 mg/kg |
| Cc1ccc2c(c1)CNc1cc(Cl)cc3c1N2[C@@H]1CCN(CCc2ccccc2)C[C@@H]31 (relative stereo) [Example 113] | 3.5 mg/kg |
| FC(F)(F)c1cc2c3c(c1)[C@@H]1CN(CC4CC4)CC[C@H]1N3c1ccccc1CN2 (relative stereo) [Example 110] | 15.6 mg/kg |
| CN1CCc2c(c3cc(Cl)cc4c3n2-c2ccc(Cl)cc2C(=O)N4)C1 [Example 14] | 31 mg/kg |
| O=C1Nc2cccc3c4c(n(c23)-c2ccc(Cl)cc21)CCNC4 [Example 7] | 25 mg/kg |
| CCN1CC[C@@H]2[C@@H](C1)c1cc(C(F)(F)F)cc3c1N2c1ccccc1CN3C (relative stereo) [Example 107] | 10.1 mg/kg |
| CCCCCCN1CCc2c(c3cc(Cl)cc4c3n2-c2ccc(C)cc2C(=O)N4)C1 [Example 42] | 162 mg/kg |
| O=C1Nc2cc(C(F)(F)F)cc3c4c(n(c23)-c2ccccc21)CCNC4 [Example 5] | 81 mg/kg |
| CN1CCc2c(c3c(Cl)ccc4c3n2-c2ccccc2C(=O)N4)C1 [Example 10] | 19.7 mg/kg |
| Cl.O=C(O)CCCN1CCc2c(c3cc(Cl)cc4c3n2-c2ccccc2C(=O)N4)C1 [Example 51, 6-Chloro-1,2,8,9-tetrahydro-9-oxopyrido[4',3':2,3]indolo[1,7-ab][1,4]benzodiazepin-3(4H)-butanoic acid hydrochloride] | 56.2 mg/kg |
| Clc1ccc2c(c1)CNc1cccc3c1N2[C@@H]1CCN(CCc2ccccc2)C[C@@H]31 (relative stereo) [Example 114] | 5.2 mg/kg |
| CCCCCCCCCCN1CCc2c(c3cc(Cl)cc4c3n2-c2ccccc2C(=O)N4)C1 [Example 44] | > 162 mg/kg |
| CCN1CC[C@@H]2[C@@H](C1)c1c(Cl)ccc3c1N2c1ccccc1CN3 (relative stereo) [Example 102] | 5.8 mg/kg |
| CCCCCCN1CCc2c(c3cc(Cl)cc4c3n2-c2ccccc2C(=O)N4)C1 [Example 37] | 11.8 mg/kg |
| Cc1ccc2c(c1)C(=O)Nc1cccc3c4c(n-2c13)CCNC4 [Example 6] | 24 mg/kg |
| O=C1Nc2cc(C(F)(F)F)cc3c4c(n(c23)-c2ccc(Cl)cc21)CCNC4 [Example 21] | > 81 mg/kg |
| Cc1ccc2c(c1)CNc1cc(Cl)cc3c1N2[C@@H]1CCN(C)C[C@@H]31 (relative stereo) [Example 101] | 0.69 mg/kg |
| CN1CC[C@@H]2[C@@H](C1)c1cc(Cl)cc3c1N2c1ccc(Cl)cc1CN3 (relative stereo) [Example 100] | 2.1 mg/kg |
| CN1Cc2ccccc2N2c3c(cccc31)[C@@H]1CN(Cc3ccccc3)CC[C@H]12 (relative stereo) [Example 112] | 6.8 mg/kg |
| O=C1Nc2cccc3c4c(n(c23)-c2ccccc21)CCN(CC1CCCCC1)C4 [Example 38] | 56.2 mg/kg |
| CN1CCc2c(c3cc(C(F)(F)F)cc4c3n2-c2ccccc2C(=O)N4)C1 [Example 18] | > 81 mg/kg |
| c1ccc2c(c1)CNc1cccc3c1N2[C@@H]1CCN(CC2CCCCC2)C[C@@H]31 (relative stereo) [Example 111] | 3.3 mg/kg |
| Cc1ccc2c(c1)C(=O)Nc1cc(Cl)cc3c4c(n-2c13)CCN(CCc1ccccc1)C4 [Example 16] | 47 mg/kg |
| 5-Chloro-1,2,3,4-tetrahydro-3-(3-oxobutyl)pyrido[4',3':2,3]indolo[1,7-ab][1,4]benzodiazepin-8(9H)-one [Example 52] | 39 mg/kg |
| CCN1CC[C@@H]2[C@@H](C1)c1cc(Cl)cc3c1N2c1ccccc1CN3C (relative stereo) [Example 106] | 5.8 mg/kg |
| CCCN1CCc2c(c3c(Cl)ccc4c3n2-c2ccccc2C(=O)N4)C1 [Example 33] | 21.7 mg/kg |

| Compound | Mouse CAR ED50 (avoidance ED50, dose at which 50% of the animals would be expected to show response failure) |
| --- | --- |
| CN1CCc2c(c3cccc4c3n2-c2ccc(Cl)cc2C(=O)N4)C1 [Example 12] | 12 mg/kg |
| Cc1ccc2c(c1)C(=O)Nc1cc(Cl)cc3c4c(n-2c13)CCNC4 [Example 20] | > 81 mg/kg |
| Cc1ccc2c(c1)C(=O)Nc1cc(Cl)cc3c4c(n-2c13)CCN(C)C4 [Example 13] | 10.5 mg/kg |
| CC(C)N1CCc2c(c3cccc4c3n2-c2ccccc2C(=O)N4)C1 [Example 31, 1,2,3,4-Tetrahydro-3-(2-propyl)pyrido[4',3':2,3]indolo[1,7-ab][1,4]benzodiazepin-9(8H)-one] | 23 mg/kg |
| CCCCCCN1CCc2c(c3c(Cl)ccc4c3n2-c2ccccc2C(=O)N4)C1 [Example 36] | 52 mg/kg |
| O=C1Nc2cc(Cl)cc3c4c(n(c23)-c2ccccc21)CCNC4 [Example 4] | 29 mg/kg |
| O=C(CCCN1CCc2c(c3cc(Cl)cc4c3n2-c2ccccc2C(=O)N4)C1)c1ccc(F)cc1 [Example 40] | 47 mg/kg |
| CCCCCCN1CCc2c(c3c(Cl)ccc4c3n2-c2ccc(C)cc2C(=O)N4)C1 [Example 41] | > 81 mg/kg |
| Clc1ccc2c(c1)CNc1cccc3c4c(n-2c13)CCN(CCc1ccccc1)C4 [Example 69] | 27 mg/kg |
| CCN1CCc2c(c3cccc4c3n2-c2ccccc2C(=O)N4)C1 [Example 32] | 27 mg/kg |
| CN1CCc2c(c3cc(C(F)(F)F)cc4c3n2-c2ccc(Cl)cc2C(=O)N4)C1 [Example 17] | 37 mg/kg |
| O=C1Nc2cccc3c4c(n(c23)-c2ccccc21)CCNC4 [Example 2, 1,2,3,4-tetrahydropyrido[4',3':2,3]indolo[1,7-ab][1,4]benzodiazepin-9(8H)-one] | 39 mg/kg |
| CCCCCCN1CC[C@@H]2[C@@H](C1)c1cc(Cl)cc3c1N2c1ccc(C)cc1CN3 (relative stereo) [Example 108] | 2.5 mg/kg |
| CCN1CC[C@@H]2[C@@H](C1)c1cccc3c1N2c1ccccc1CN3C (relative stereo) [Example 104] | 41 mg/kg |
| CCN1CC[C@@H]2[C@@H](C1)c1cccc3c1N2c1ccc(Cl)cc1CN3 (relative stereo) [Example 105] | 24 mg/kg |
| Clc1cc2c3c(c1)c1c(n3-c3ccccc3CN2)CCNC1 [Example 59, 6-Chloro-1,2,3,4,8,9-hexahydropyrido[4',3':2,3]indolo[1,7-ab][1,4]benzodiazepine] | 9.0 mg/kg |
| Clc1cc2c3c(c1)c1c(n3-c3ccccc3CN2)CCN(CC2CCCCC2)C1 [Example 68, 6-Chloro-3-cyclohexylmethyl-1,2,3,4,8,9-hexahydropyrido[4',3':2,3]indolo[1,7-ab][1,4]benzodiazepine] | 7.1 mg/kg |
| CCCCCCN1CCc2c(c3cccc4c3n2-c2ccccc2C(=O)N4)C1 [Example 35] | 56.2 mg/kg |
| Cc1ccc2c(c1)C(=O)Nc1ccc(Cl)c3c4c(n-2c13)CCNC4 [Example 9] | > 81 mg/kg |
| CN1CC[C@@H]2[C@@H](C1)c1cccc3c1N2c1ccc(Cl)cc1CN3 (relative stereo) [Example 99] | 1.4 mg/kg |
| CCCN1CCc2c(c3cc(Cl)cc4c3n2-c2ccccc2C(=O)N4)C1 [Example 34] | 13.6 mg/kg |
| Clc1ccc2c(c1)CNc1cccc3c4c(n-2c13)CCNC4 [Example 61] | 34 mg/kg |
| CN1CCc2c(c3cc(Cl)cc4c3n2-c2ccccc2C(=O)N4)C1 [Example 11] | 67 mg/kg |
| O=C1Nc2ccc(Cl)c3c4c(n(c23)-c2ccccc21)CCNC4 [Example 3] | 45 mg/kg |
| O=C1Nc2cccc3c4c(n(c23)-c2cc(Cl)ccc21)CCNC4 [Example 8] | > 54 mg/kg |
| CCN1CC[C@@H]2[C@@H](C1)c1cc(C(F)(F)F)cc3c1N2c1ccccc1CN3 (relative stereo) [Example 103] | 1.2 mg/kg |
